Assay results reported in patent publication US7094752B2 (Chiron Corporation, priority 1997, dated 2006).

Assays:
[1] = molecular target: T1, uPA1–48:uPAR complexes binding to vitronectin (Homo sapiens, UniProt Q03405); assay: Vitronectin binding assay (ELISA); conditions: 20 nM biotinylated suPAR, 20 nM uPA1–48
T1 construct: sUPAR, soluble truncated form of the urokinase receptor; made in house; host or cells: suPAR: baculovirus-infected Sf9 cells; uPA1-48: recombinant yeast; vitronectin: purified from human plasma
T1 sequence (Q03405 23-305 limits assumed, one chain of several): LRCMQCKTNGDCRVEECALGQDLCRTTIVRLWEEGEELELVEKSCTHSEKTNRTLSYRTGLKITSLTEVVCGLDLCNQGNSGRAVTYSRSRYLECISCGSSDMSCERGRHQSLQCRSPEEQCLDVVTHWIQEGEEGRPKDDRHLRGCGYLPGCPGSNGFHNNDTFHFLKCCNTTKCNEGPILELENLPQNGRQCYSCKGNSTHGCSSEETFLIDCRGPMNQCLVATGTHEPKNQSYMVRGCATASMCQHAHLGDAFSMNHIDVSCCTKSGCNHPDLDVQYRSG
Experimental: Vitronectin was purified from human plasma by the method of Yatohgo et al, Cello Struct.and Funct. 13: 281–292 (1988). Purified vitronectin was diluted to 20 μg/ml in PBS containing 1 mM CaCl2 and 0.5 mM MgCl2, dispensed at 50 μl/well into Immulon II wells (Dynatech, Chantilly, Va.), incubated overnight at 4° C. and washed with PBS/BSA. Biotinylated sUPAR was diluted to 20 nM in PBS/BSA, incubated with or without test ligand for 30 minutes at room temperature (22° C.), dispensed at 100 μl/well and incubated for 90 minutes. Wells were then washed and horseradish peroxidase (HRP)-conjugated streptavidin was added at 0.4 μg/ml in PBS/2% BSA for 1 hour followed by washing and addition of 100 μl/well TMB substrate. The color development was stopped with 100 μl of 0.8N H2SO4 and the absorbance at 450 nm measured in a 96 well plate reader (Dynatech, Chantilly, Va.). Antagonistic effects of test ligands were measured as described above except the ligands were incubated with 20 nM biotinylated suPAR in the presence of 20 nM uPA1–48.
In order to analyze the effects of the various peptide ligands on the uPAR:vitronectin interaction, we developed an in vitro ELISA based assay for this interaction, in which biotinylated suPAR and uPA1–48 bind to immobilized, urea purified vitronectin, and the bound sUPAR is detected with HRP conjugated streptavidin. Under the conditions of the assay binding of biotinylated uPAR to vitronectin is strictly dependent on uPA1–48, as shown in FIG. 1.

[2] = molecular target: T2, suPAR (Homo sapiens, UniProt Q03405); assay: SuPAR:1-anilino-8-napthalenesulfonate (ANS) fluorescence; assay type: binding; conditions: 2 μM sUPAR, 10 μM ANS, 0 to 20 μM competitor
T2 construct: sUPAR, soluble truncated form of the urokinase receptor; made in house; host or cells: baculovirus-infected Sf9 insect cells
T2 sequence (Q03405 23-305 limits assumed): as the sequence (Q03405 23-305 limits assumed, one chain of several) above
Experimental: Determination of the effect of various peptide ligands on sUPAR/ANS fluorescence was performed following a procedure similar to that of Ploug et al, Biochem. 33: 8991–8997 (1994). Fluorescence emission spectra of sUPAR/ANS solutions with or without competitors were obtained using an Hitachi F-4500 fluorescence spectrophotometer with an excitation wavelength of 386 nm, 5-nm band-pass excitation and emission slits, and a 10 mm path length quartz cuvette. The emission spectra from 400 to 600 nm were recorded. For competition measurements, dilutions of a stock sUPAR/ANS solution were made to give individual 0.5 ml aliquots with a final concentration of 2 μM sUPAR, 10 μM ANS, and 0 to 20 μM competitor in PBS containing 10% DMSO. Fluorescence measurements were made after a one hour incubation at 25° C.

[3] = molecular target: T3, Mac-1 and uPAR (Homo sapiens, UniProt Q03405); assay: Mac-1/uPAR interaction in U937 cell line; assay type: cell-based; conditions: 100 μM
T3 construct: endogenous in cells; host or cells: U937 cell line
T3 sequence (Q03405 23-305 limits assumed): as the sequence (Q03405 23-305 limits assumed, one chain of several) above

[4] = tested on: GPI-uPAR dependent adhesion of 293 cells to vitronectin; assay: Adhesion of GPI-uPAR expressing 293 cells to vitronectin; assay type: cell-based
Excerpt: In order to ascertain whether cytoskeletal connecting elements important to integrin-dependent adhesion were also involved in adhesion mediated by uPAR, embryonic kidney cells (293 cells) were engineered to coexpress uPAR along with a chimeric protein comprised of the β1 cytoplasmic tail fused with the transmembrane domain of […] (CD4). […] Co-expression of uPAR with β1 cytoplasmic domains completely abrogated uPAR-dependent vitronectin adhesion. Clones expressing full length or truncated β1 cytoplasmic tails prepared as in Lukashev et al, J. Biol. Chem. 26: 18311 (1994) were transfected with cDNA for GPI-uPAR and selected as in Wei et al, J. Biol. Chem. 169: 32380 (1994). Chimeric β1 expression was induced by cadmium for 6 hours prior to assaying adhesion to vitronectin at 37° C. Following induction of full length β1 chimerics, essentially no cells were adherent to vitronectin-coated surfaces whereas co-transfectants expressing the truncated β1 adhered avidly.
Cell adhesion assays were conducted to determin whether the observed uPAR/β1/caveolin complexes were functionally relevant.
To test this hypothesis further, a phage display peptide library was screened for uPAR-binding phages. A number of phage peptides were isolated as described in Goodson et al, Proc. Natl. Acad. Sci. U.S.A. 91: 7129 (1994). […]

## H-AESTYHHLSLGYMYTLN-NH2 [peptide 25]
[1]
  effect on binding of uPA1–48:uPAR complexes to vitronectin: little or no effect
[2]
  effect on ANS fluorescence enhancement in the presence of uPAR: no effect
[3]
  interaction between Mac-1 and uPAR: abrogated the interaction
[4]
  IC50: ~60 µM
